Assay: Blood constituents and health monitoring in rhesus males after EP055 infusion
Type: in vivo, Macaca mulatta
Parameters: Hematocrit: unit not given here
Description: The physical and behavioral condition of animals are monitored daily at ONPRC. Additional monitoring by Division of Comparative Medicine and/or clinical veterinary staff was provided immediately, at 1 hr, 2 hr and 6 hr post-administration of the contraceptive compound, and daily for up to 30 days after the final drug injection. Criteria used to assess animal health and welfare include: stool and urine quality and quantity, appetite and attitude (bright and alert, quiet, lethargic), pain (not eating, not moving, hunched over, lethargy/disinterest), vomiting, diarrhea, nausea, dehydration (unkempt coat, lack of urine production), and signs of wounds of injury. In addition, the ONPRC Standardized Pain Scoring system is used post-surgically to monitor an animal’s progress and improvement over time. Major criteria include animal appearance, posture, activity (including stool and urine production), vocalization and atypical behaviors.
Prior to infusion of EP055, each male was sedated with ketamine by the surgical staff at ONPRC and transported to the operating room. After positioning in dorsal recumbency, the male was intubated and placed under inhalant (isoflurane) anesthesia. Bilateral intravenous catheters were placed in cephalic veins, one for infusion and one for back-up. A percutaneous arterial line was placed in the right femoral artery for direct blood pressure measurement. Invasive blood pressure, heart rate, SpO2, and respirations were monitored by the surgical staff throughout the procedure. Initially, the low doses of EP055 in 5% DMSO-PBS 7.6 was infused by i.v. at 75-80 mg/kg, using a Medfusion 3500 pump (Smiths Medical, St. Paul, MN), and was started at a low flow rate ([…]). In 3 of 4 males, a 5-10% increase in blood pressure and heart rate were noted within the first 2-3 minutes of infusion of EP055. In these cases, the infusion was temporarily suspended until these parameters subsequently declined to normal. The infusion rate was then doubled to 1.2 ml/kg/min after 5-10 minutes and the final volume of EP055 infusate was administered. Blood pressure and heart rate remained normal throughout the rest of the infusion interval. The total volume of EP055 infusate ranged from 72 ml – 136 ml, depending upon the weight of the animal, and the duration of infusion was 10-13 minutes. Following completion of the infusion, all animals recovered normally. Animals were monitored by clinical veterinary staff immediately, at 1 hr, 2 hr and 6-8 hr post-infusion, and daily for up to 30 days after the final infusion of EP055. […] Two weeks after the infusion of the low dose and collection of the next set of baseline semen samples, males were infused with the high dose of EP055 (125-130 mg/kg) as described above, and monitored similarly.
Blood was collected from the brachial vein at the time of each semen collection, and used to determine complete blood counts and serum biochemistry tests (including electrolytes, glucose, lipids, proteins, enzymes and metabolic by-products) as performed in the Clinical Pathology Laboratory in the Division of Comparative Medicine at ONPRC.

[1] = post high dose 125–130 mg/kg, 6-8 hrs
[2] = post high dose 125–130 mg/kg, 28-30 hrs
[3] = post high dose 125–130 mg/kg, 78 hr
[4] = post low dose 75–80 mg/kg, 6-8 hrs

COC(=O)NNc1nc(Nc2ccc(NC(C)=O)c(O)c2)nc(SCC(=O)O)n1 [EP055]
increase in blood pressure and heart rate (3 of 4 males, first 2-3 minutes of low dose infusion (75-80 mg/kg)): 5-10%
blood constituents versus baseline levels (after low or high dose): no clinically significant difference
side effects, monitoring of blood and organ function (during and after drug administration): no indications of any side effects or health warning signs
ALT (alanine aminotransferase) and glucose levels (during treatment): rose during treatment
adverse effects (high dose 125-130 mg/kg): no adverse effects were observed
neutrophil numbers versus reference range (2.4–9.6 x 10^3/mm^3) (high dose, 6 hrs): slightly above the high end of the reference range
long-term effects on animals (in vivo): no long- term effects
adverse effects (low dose 75-80 mg/kg, monitored up to 30 days): No adverse effects were observed
ALT [1]: 49.7 ± 3.6 U/l
AST [1]: 68.3 ± 6.8 U/l
Albumin [1]: 4.7 ± 0.1 g/dL
Alkaline Phosphatase [1]: 94.0 ± 4.8 U/l
BUN [1]: 18.8 ± 2.3 mg/dL
Basophils [1]: 0.5 ± 0.1%
CREAT [1]: 1.0 ± 0.1 mg/dL
Chloride [1]: 108.7 ± 0.3 mEq/l
Cholesterol [1]: 146.3 ± 18.1 mg/dL
Eosinophils [1]: 0.9 ± 0.1%
Erythrocytes [1]: 6.1 ± 0.2 x 10^6/mm^3
GGT [1]: 71.0 ± 1.0 U/l
GLUC [1]: 101.3 ± 10.2 mg/dL
Hematocrit [1]: 45.2 ± 1.0
Hemoglobin [1]: 14.7 ± 0.4 g/dL
Leukocytes [1]: 12.3 ± 1.8 x 10^3/mm^3
Lymphocytes [1]: 21.6 ± 9.9%
MCH [1]: 24.2 ± 0.4 pg/cell
MCHC [1]: 32.5 ± 0.1 g/dL
MCV [1]: 74.5 ± 1.1 fl/cell
Magnesium [1]: 2.2 ± 0.1 mg/dL
Monocytes [1]: 5.2 ± 0.4%
Neutrophils [1]: 10.3 ± 1.4 x 10^3/mm^3
Phosphorus [1]: 5.2 ± 0.4 mg/dL
Platelets [1]: 298.3 ± 39.0 x 10^6
Potassium [1]: 4.0 ± 0.1 mEq/l
Sodium [1]: 147.7 ± 0.6 mEq/l
Total Bilirubin [1]: 0.2 ± 0.1 mg/dL
Total Protein [1]: 7.6 ± 0.2 g/dL
Triglycerides [1]: 84.3 ± 19.8 mg/dL
ALT [2]: 74.0 ± 10.8 U/l
AST [2]: 83.3 ± 14.3 U/l
Albumin [2]: 4.7 ± 0.1 g/dL
Alkaline Phosphatase [2]: 95.7 ± 3.6 U/l
BUN [2]: 15.3 ± 2.4 mg/dL
Basophils [2]: 0.5 ± 0.1%
CREAT [2]: 1.0 ± 0.0 mg/dL
Chloride [2]: 108.7 ± 0.6 mEq/l
Cholesterol [2]: 147.3 ± 23.4 mg/dL
Eosinophils [2]: 1.4 ± 0.1%
Erythrocytes [2]: 6.1 ± 0.2 x 10^6/mm^3
GGT [2]: 71.3 ± 3.4 U/l
GLUC [2]: 92.0 ± 9.7 mg/dL
Hematocrit [2]: 45.9 ± 0.9
Hemoglobin [2]: 15.0 ± 0.4 g/dL
Leukocytes [2]: 7.7 ± 1.4 x 10^3/mm^3
Lymphocytes [2]: 32.4 ± 4.3%
MCH [2]: 24.4 ± 0.3 pg/cell
MCHC [2]: 32.7 ± 0.2 g/dL
MCV [2]: 74.8 ± 1.0 fl/cell
Magnesium [2]: 1.9 ± 0.0 mg/dL
Monocytes [2]: 5.5 ± 0.6%
Neutrophils [2]: 5.1 ±0.8 x 10^3/mm^3
Phosphorus [2]: 3.2 ± 0.6 mg/dL
Platelets [2]: 301.7 ± 36.5 x 10^6
Potassium [2]: 4.0 ± 0.1 mEq/l
Sodium [2]: 149.0 ± 0.0 mEq/l
Total Bilirubin [2]: 0.2 ± 0.1 mg/dL
Total Protein [2]: 7.8 ± 0.2 g/dL
Triglycerides [2]: 59.3 ± 18.5 mg/dL
ALT [3]: 53.0 ± 7.3 U/l
AST [3]: 30.0 ± 3.1 U/l
Albumin [3]: 4.8 ± 0.1 g/dL
Alkaline Phosphatase [3]: 101.5 ± 8.7 U/l
BUN [3]: 18.3 ± 2.2 mg/dL
Basophils [3]: 0.5 ± 2.3%
CREAT [3]: 1.0 ± 0.0 mg/dL
Chloride [3]: 108.5 ± 0.9 mEq/l
Cholesterol [3]: 152.0 ± 19.4 mg/dL
Eosinophils [3]: 1.4 ± 4.5%
Erythrocytes [3]: 5.8 ± 4.5 x 10^6/mm^3
GGT [3]: 69.3 ± 3.8 U/l
GLUC [3]: 85.0 ± 8.7 mg/dL
Hematocrit [3]: 43.3 ± 4.5
Hemoglobin [3]: 14.1 ± 2.3 g/dL
Leukocytes [3]: 9.7 ± 2.3 x 10^3/mm^3
Lymphocytes [3]: 34.6 ± 4.5%
MCH [3]: 24.3 ± 4.5 pg/cell
MCV [3]: 74.9 ± 2.3 fl/cell
Magnesium [3]: 1.9 ± 0.1 mg/dL
Monocytes [3]: 5.6 ± 2.3%
Neutrophils [3]: 5.4 ± 1.1 x 10^3/mm^3
Phosphorus [3]: 4.2 ± 0.8 mg/dL
Platelets [3]: 292.8 ± 48.1 x 10^6
Potassium [3]: 4.4 ± 0.2 mEq/l
Sodium [3]: 149.5 ± 1.2 mEq/l
Total Bilirubin [3]: 0.1 ± 0.0 mg/dL
Total Protein [3]: 7.8 ± 0.1 g/dL
Triglycerides [3]: 68.0 ± 10.6 mg/dL
ALT [4]: 44.8 ± 2.0- U/l
AST [4]: 49.8 ± 3.1 U/l
Albumin [4]: 4.7 ± 0.0 g/dL
Alkaline Phosphatase [4]: 129.8 ± 19.2 U/l
BUN [4]: 17.2 ± 1.9 mg/dL
Basophils [4]: 0.6 ± 0.1%
CREAT [4]: 1.0 ± 0.0 mg/dL
Chloride [4]: 109.3 ± 1.5 mEq/l
Cholesterol [4]: 154.5 ± 19.0 mg/dL
Eosinophils [4]: 1.2 ± 0.3%
Erythrocytes [4]: 5.9 ± 0.2 x 10^6/mm^3

From article PMC5908160, “Inhibition of sperm motility in male macaques with EP055, a potential non-hormonal male contraceptive” (PLoS ONE, 2018)
